Experimental data reported in US9630977B2, “Cephalosporin derivatives and pharmaceutical compositions thereof” (Legochem Biosciences, Inc., priority 2011, dated 2017).
In brackets after ≈: the same amount, converted by molar mass. Where two headings read alike, the source gives them in different places.

Assays:
Experiment in all cases: In vitro antibacterial activity test (broth microdilution)
Assay type in all cases: cell-based
E. coli AG100 = conditions: Escherichia coli
Summary of the method: (§1)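 MIC90 (ug/mL) reported. CLSI microdilution in broth, clinical strains, 0.0626–128 ug/mL final compound, 2.5% v/v DMSO co-solvent.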

A. baumannii 49 = system: A. baumannii 49
Summary of the method: as §1

P. aeruginosa 43 = conditions: Pseudomonas aeruginosa
Summary of the method: as §1

K. pneumoniae β11 = conditions: Klebsiella pneumoniae
Summary of the method: as §1

E. cloacae β19 = conditions: Enterobacter cloacae
Summary of the method: as §1

K. pneumoniae β10 = conditions: Klebsiella pneumoniae
Summary of the method: as §1

K. pneumoniae β13 = conditions: Klebsiella pneumoniae
Summary of the method: as §1

[1] = system: A. calcoaceticus ATCC15473; conditions: Acinetobacter calcoaceticus
Summary of the method: as §1

M. catarrhalis 2524 = conditions: Moraxella catarrhalis
Summary of the method: as §1

P. aeruginosa 1912E = conditions: Pseudomonas aeruginosa, 1912E
Summary of the method: as §1

K. pneumoniae β9 = conditions: Klebsiella pneumoniae
Summary of the method: as §1

A. baumannii 52 = conditions: Acinetobacter baumannii
Summary of the method: as §1

A. baumannii 46 = system: A. baumannii 46
Summary of the method: as §1

P. aeruginosa 40 = system: P. aeruginosa 40
Summary of the method: as §1

K. pneumoniae 2011E = conditions: Klebsiella pneumoniae, 2011E
Summary of the method: as §1

E. coli β4 = conditions: Escherichia coli
Summary of the method: as §1

P. aeruginosa 6065Y = conditions: Pseudomonas aeruginosa
Summary of the method: as §1

K. pneumoniae β14 = conditions: Klebsiella pneumoniae
Summary of the method: as §1

P. aeruginosa 37 = conditions: Pseudomonas aeruginosa, 37, P. aeruginosa 37
Summary of the method: as §1

[2] = AG100, E. coli AG100, read-out: MIC90
[3] = Acinetobacter baumannii, A. baumannii 49, read-out: MIC90
[4] = P. aeruginosa 43, read-out: MIC90
[5] = K. pneumoniae β11, read-out: MIC90
[6] = K. pneumoniae β10, read-out: MIC90
[7] = K. pneumoniae β13, read-out: MIC90
[8] = A. calcoaceticus ATCC15473, read-out: MIC90
[9] = M. catarrhalis 2524, read-out: MIC90
[10] = K. pneumoniae β9, read-out: MIC90
[11] = A. baumannii 52, read-out: MIC90
[12] = Acinetobacter baumannii, A. baumannii 46, read-out: MIC90
[13] = Pseudomonas aeruginosa, 40, P. aeruginosa 40, read-out: MIC90
[14] = K. pneumoniae 2011E, read-out: MIC90

Structure (SMILES) | MIC90 (E. coli AG100; [2]) | MIC90 (A. baumannii 49; [3]) | MIC90 (P. aeruginosa 43; [4]) | MIC90 (K. pneumoniae β11; [5]) | MIC90 (E. cloacae β19; read-out: MIC90) | MIC90 (K. pneumoniae β10; [6]) | MIC90 (K. pneumoniae β13; [7]) | MIC90 [1, 8] | MIC90 (M. catarrhalis 2524; [9]) | MIC90 (P. aeruginosa 1912E; read-out: MIC90) | MIC90 (K. pneumoniae β9; [10]) | MIC90 (A. baumannii 52; [11]) | MIC90 (A. baumannii 46; [12]) | MIC90 (P. aeruginosa 40; [13]) | MIC90 (K. pneumoniae 2011E; [14]) | MIC90 (E. coli β4; read-out: MIC90) | MIC90 (P. aeruginosa 6065Y; read-out: MIC90) | MIC90 (K. pneumoniae β14; read-out: MIC90) | MIC90 (P. aeruginosa 37; read-out: MIC90) | also measured
CC(C)(O/N=C(\C(=O)N[C@@H]1C(=O)N2C(C(=O)[O-])=C(/C=C/C[n+]3cnc(N)c(NC(=O)CCN)c3)CSC12)c1csc(N)n1)C(=O)O (some centres unmarked) [Compound 60] | – | – | – | – | – | – | – | – | – | – | – | – | – | – | – | – | – | – | – | MIC90 (E. coli AG100; AG100): 0.125 µg/mL (≈ 0.185 µM); MIC90 (A. baumannii 49; Acinetobacter baumannii, 49, A. baumannii 49): > 128 µg/mL; MIC90 (P. aeruginosa 43; 43): 64 µg/mL (≈ 94.9 µM); MIC90 (K. pneumoniae β11): 64 µg/mL (≈ 94.9 µM); MIC90 (E. cloacae β19): 0.5 µg/mL (≈ 0.741 µM); MIC90 (K. pneumoniae β10): 0.5 µg/mL (≈ 0.741 µM); MIC90 (K. pneumoniae β13): 0.5 µg/mL (≈ 0.741 µM); MIC90 ([1]; ATCC15473, A. calcoaceticus ATCC15473): 1 µg/mL (≈ 1.48 µM); MIC90 (M. catarrhalis 2524; 2524): < 0.0625 µg/mL; MIC90 (P. aeruginosa 1912E): 2 µg/mL (≈ 2.96 µM); MIC90 (K. pneumoniae β9): 1 µg/mL (≈ 1.48 µM); MIC90 (A. baumannii 52; 52): 128 µg/mL (≈ 190 µM); MIC90 (A. baumannii 46; Acinetobacter baumannii, 46, A. baumannii 46): 8 µg/mL (≈ 11.9 µM); MIC90 (P. aeruginosa 40; Pseudomonas aeruginosa, 40): 8 µg/mL (≈ 11.9 µM); MIC90 (K. pneumoniae 2011E): 0.25 µg/mL (≈ 0.371 µM); MIC90 (E. coli β4): 0.25 µg/mL (≈ 0.371 µM); MIC90 (P. aeruginosa 6065Y; 6065Y): 16 µg/mL (≈ 23.7 µM); MIC90 (K. pneumoniae β14): 0.5 µg/mL (≈ 0.741 µM); MIC90 (P. aeruginosa 37): 32 µg/mL (≈ 47.4 µM)
CC(C)(O/N=C(\C(=O)N[C@@H]1C(=O)N2C(C(=O)[O-])=C(C[n+]3cnc(N)c(NC(=O)CCNC(=O)c4cc(=O)c(O)cn4O)c3)CSC12)c1nsc(N)n1)C(=O)O (some centres unmarked) [Compound 19] | 1 µg/mL (≈ 1.25 µM) | 16 µg/mL (≈ 19.9 µM) | 2 µg/mL (≈ 2.49 µM) | > 128 µg/mL | 128 µg/mL (≈ 159 µM) | 1 µg/mL (≈ 1.25 µM) | 16 µg/mL (≈ 19.9 µM) | 0.5 µg/mL (≈ 0.623 µM) | 1 µg/mL (≈ 1.25 µM) | 2 µg/mL (≈ 2.49 µM) | 64 µg/mL (≈ 79.7 µM) | 8 µg/mL (≈ 9.97 µM) | 4 µg/mL (≈ 4.98 µM) | 0.5 µg/mL (≈ 0.623 µM) | 16 µg/mL (≈ 19.9 µM) | 16 µg/mL (≈ 19.9 µM) | 2 µg/mL (≈ 2.49 µM) | 128 µg/mL (≈ 159 µM) | 0.5 µg/mL (≈ 0.623 µM) | –

The next lines start with results.

MIC90 (E. coli AG100; [2]) | MIC90 (A. baumannii 49; [3]) | MIC90 (P. aeruginosa 43; [4]) | MIC90 (K. pneumoniae β11; [5]) | MIC90 (E. cloacae β19; read-out: MIC90) | MIC90 (K. pneumoniae β10; [6]) | MIC90 (K. pneumoniae β13; [7]) | MIC90 [1, 8] | MIC90 (M. catarrhalis 2524; [9]) | MIC90 (P. aeruginosa 1912E; read-out: MIC90) | MIC90 (K. pneumoniae β9; [10]) | MIC90 (A. baumannii 52; [11]) | MIC90 (A. baumannii 46; [12]) | MIC90 (P. aeruginosa 40; [13]) | MIC90 (K. pneumoniae 2011E; [14]) | MIC90 (E. coli β4; read-out: MIC90) | MIC90 (P. aeruginosa 6065Y; read-out: MIC90) | MIC90 (K. pneumoniae β14; read-out: MIC90) | MIC90 (P. aeruginosa 37; read-out: MIC90) | Structure (SMILES) | also measured
< 0.0625 µg/mL | > 128 µg/mL | 1 µg/mL (≈ 1.21 µM) | 64 µg/mL (≈ 77.3 µM) | 2 µg/mL (≈ 2.42 µM) | < 0.0625 µg/mL | < 0.0625 µg/mL | 1 µg/mL (≈ 1.21 µM) | 0.25 µg/mL (≈ 0.302 µM) | 1 µg/mL (≈ 1.21 µM) | < 0.0625 µg/mL | > 128 µg/mL | 4 µg/mL (≈ 4.83 µM) | 0.5 µg/mL (≈ 0.604 µM) | 1 µg/mL (≈ 1.21 µM) | < 0.0625 µg/mL | 2 µg/mL (≈ 2.42 µM) | 4 µg/mL (≈ 4.83 µM) | 0.25 µg/mL (≈ 0.302 µM) | CC(C)(O/N=C(\C(=O)N[C@@H]1C(=O)N2C(C(=O)[O-])=C(/C=C/C[n+]3cnc(N)c(NCCCCNC(=O)c4cc(=O)c(O)cn4O)c3)CSC12)c1csc(N)n1)C(=O)O (some centres unmarked) [Compound 23] | –
< 0.0625 µg/mL | 32 µg/mL (≈ 39 µM) | 0.25 µg/mL (≈ 0.305 µM) | 2 µg/mL (≈ 2.44 µM) | 0.5 µg/mL (≈ 0.61 µM) | < 0.0625 µg/mL | 0.125 µg/mL (≈ 0.152 µM) | 0.5 µg/mL (≈ 0.61 µM) | < 0.0625 µg/mL | 0.25 µg/mL (≈ 0.305 µM) | < 0.0625 µg/mL | 16 µg/mL (≈ 19.5 µM) | 2 µg/mL (≈ 2.44 µM) | 0.25 µg/mL (≈ 0.305 µM) | 0.5 µg/mL (≈ 0.61 µM) | < 0.0625 µg/mL | 0.5 µg/mL (≈ 0.61 µM) | 4 µg/mL (≈ 4.88 µM) | < 0.0625 µg/mL | C[C@H](O/N=C(\C(=O)N[C@@H]1C(=O)N2C(C(=O)[O-])=C(/C=C/C[n+]3cnc(N)c(NCCNC(=O)c4cc(=O)c(O)cn4O)c3)CSC12)c1nc(N)sc1Cl)C(=O)O (some centres unmarked) [Compound 24] | –
< 0.0625 µg/mL | > 128 µg/mL | 0.25 µg/mL (≈ 0.318 µM) | > 128 µg/mL | 2 µg/mL (≈ 2.55 µM) | 0.125 µg/mL (≈ 0.159 µM) | 0.25 µg/mL (≈ 0.318 µM) | 0.5 µg/mL (≈ 0.636 µM) | 0.5 µg/mL (≈ 0.636 µM) | 0.25 µg/mL (≈ 0.318 µM) | 1 µg/mL (≈ 1.27 µM) | > 128 µg/mL | 0.5 µg/mL (≈ 0.636 µM) | < 0.0625 µg/mL | 0.125 µg/mL (≈ 0.159 µM) | 1 µg/mL (≈ 1.27 µM) | 0.25 µg/mL (≈ 0.318 µM) | 64 µg/mL (≈ 81.4 µM) | 0.25 µg/mL (≈ 0.318 µM) | C[C@H](O/N=C(\C(=O)N[C@@H]1C(=O)N2C(C(=O)[O-])=C(/C=C/C[n+]3cnc(N)c(NCCNC(=O)c4cc(=O)c(O)cn4O)c3)CSC12)c1csc(N)n1)C(=O)O (some centres unmarked) [Compound 9] | –
